# Target: ALPK1 (Homo sapiens (Human), UniProt Q96QP1)
# Assay: ALPK1 in vitro kinase assay (HTRF of TIFA phosphorylation)
# Assay type: biochemical
# Conditions: ALPK1 2 nM, TIFA substrate, ADP-Heptose activator, HTRF readout
# Sequence of ALPK1 (Q96QP1 whole entry): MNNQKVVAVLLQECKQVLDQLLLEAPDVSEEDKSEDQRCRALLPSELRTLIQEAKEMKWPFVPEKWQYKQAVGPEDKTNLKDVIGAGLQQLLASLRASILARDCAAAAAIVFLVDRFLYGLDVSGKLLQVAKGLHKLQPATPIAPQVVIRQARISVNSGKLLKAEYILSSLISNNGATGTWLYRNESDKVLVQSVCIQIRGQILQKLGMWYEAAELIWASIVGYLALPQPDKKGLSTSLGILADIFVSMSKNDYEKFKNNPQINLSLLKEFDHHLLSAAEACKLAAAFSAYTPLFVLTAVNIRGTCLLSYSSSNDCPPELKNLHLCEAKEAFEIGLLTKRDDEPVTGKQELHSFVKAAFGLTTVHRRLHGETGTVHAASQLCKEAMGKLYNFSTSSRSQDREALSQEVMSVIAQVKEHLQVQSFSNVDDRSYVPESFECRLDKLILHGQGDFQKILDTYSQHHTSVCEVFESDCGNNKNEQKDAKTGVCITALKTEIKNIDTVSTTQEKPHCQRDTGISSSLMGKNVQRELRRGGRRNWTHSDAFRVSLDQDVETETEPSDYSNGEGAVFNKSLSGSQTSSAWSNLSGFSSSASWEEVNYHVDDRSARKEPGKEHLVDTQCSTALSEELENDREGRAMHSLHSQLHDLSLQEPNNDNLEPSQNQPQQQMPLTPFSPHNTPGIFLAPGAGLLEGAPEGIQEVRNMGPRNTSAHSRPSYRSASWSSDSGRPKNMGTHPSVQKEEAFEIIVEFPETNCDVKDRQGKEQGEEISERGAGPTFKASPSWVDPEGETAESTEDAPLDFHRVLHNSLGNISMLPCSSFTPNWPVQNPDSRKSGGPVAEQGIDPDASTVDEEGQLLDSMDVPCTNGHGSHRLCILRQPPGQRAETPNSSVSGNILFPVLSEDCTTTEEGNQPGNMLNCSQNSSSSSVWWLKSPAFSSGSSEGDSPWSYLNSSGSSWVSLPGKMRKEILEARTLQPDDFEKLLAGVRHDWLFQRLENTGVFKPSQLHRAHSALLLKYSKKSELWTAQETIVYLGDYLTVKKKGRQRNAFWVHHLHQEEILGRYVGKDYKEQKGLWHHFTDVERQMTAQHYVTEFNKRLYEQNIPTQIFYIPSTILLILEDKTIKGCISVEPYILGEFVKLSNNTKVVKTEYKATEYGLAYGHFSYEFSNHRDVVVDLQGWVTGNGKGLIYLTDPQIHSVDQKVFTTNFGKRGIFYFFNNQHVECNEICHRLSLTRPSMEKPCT
row,Structure (SMILES),IC50 [nM]
1,"C#CC(C)(c1ccc(Cl)cc1)c1csc(NC(=O)c2c(Cl)cc(N3CCNCC3)cc2Cl)n1 (stereo not drawn) [Example B096, 2,6-dichloro-N-(4-(2-(4-chlorophenyl)but-3-yn-2-yl)thiazol-2-yl)-4-(piperazin-1-yl)benzamide]",312
2,"C#CC(C)(c1ccc(Cl)cc1)c1csc(NC(=O)c2c(F)cc(N3CCNCC3CC)cc2F)n1 (stereo not drawn) [Example B101, N-(4-(2-(4-chlorophenyl)but-3-yn-2-yl)thiazol-2-yl)-4-(2-ethylpiperazin-1-yl)-2,6-difluorobenzamide]",70
3,"C#CC(C)(c1ccc(F)cc1)c1csc(NC(=O)c2c(F)cc(-c3cnn(C)c3N)cc2F)n1 (stereo not drawn) [Example B102, 4-(5-amino-1-methyl-1H-pyrazol-4-yl)-2,6-difluoro-N-(4-(2-(4-fluorophenyl)but-3-yn-2-yl)thiazol-2-yl)benzamide]",1270
4,"C#CC(C)(c1ccc(F)cc1)c1csc(NC(=O)c2c(F)cc(-c3c[nH]n(C)c3=O)cc2F)n1 (stereo not drawn) [Example B103, 2,6-difluoro-N-(4-(2-(4-fluorophenyl)but-3-yn-2-yl)thiazol-2-yl)-4-(2-methyl-3-oxo-2,3-dihydro-1H-pyrazol-4-yl)benzamide]",5140
5,"C#CC(C)(c1ccc(F)cc1)c1csc(NC(=O)c2c(F)cc(-c3cnc(CN)cn3)cc2F)n1 (stereo not drawn) [Example B104, 4-(5-(aminomethyl)pyrazin-2-yl)-2,6-difluoro-N-(4-(2-(4-fluorophenyl)but-3-yn-2-yl)thiazol-2-yl)benzamide]",1470
6,"CC(c1ccc(Cl)cc1)c1csc(NC(=O)c2c(F)cc(N3CCNCC3)cc2F)n1 (stereo not drawn) [Example C003, N-(4-(1-(4-chlorophenyl)ethyl)thiazol-2-yl)-2,6-difluoro-4-(piperazin-1-yl)benzamide]",11
7,"COCC(C)(c1ccccc1)c1csc(NC(=O)c2c(F)cc(N3CCNCC3)cc2F)n1 (stereo not drawn) [Example C004, 2,6-difluoro-N-(4-(1-methoxy-2-phenylpropan-2-yl)thiazol-2-yl)-4-(piperazin-1-yl)benzamide]",22
8,"CC(C)(c1ccc(F)cc1)c1csc(NC(=O)c2c(F)cc(N3CCNCC3)cc2F)n1 [Example C005, 2,6-difluoro-N-(4-(2-(4-fluorophenyl)propan-2-yl)thiazol-2-yl)-4-(piperazin-1-yl)benzamide]",6
9,"O=C(Nc1nc(C2(c3ccc(Br)cc3)CCCC2)cs1)c1c(F)cc(N2CCNCC2)cc1F [Example C006, N-(4-(1-(4-bromophenyl)cyclopentyl)thiazol-2-yl)-2,6-difluoro-4-(piperazin-1-yl)benzamide]",43
10,"C#CC(C)(c1ccc(Cl)cc1)c1csc(NC(=O)c2c(F)cc(N3CCN(C)CC3)cc2F)n1 (stereo not drawn) [Example C009, N-(4-(2-(4-chlorophenyl)but-3-yn-2-yl)thiazol-2-yl)-2,6-difluoro-4-(4-methylpiperazin-1-yl)benzamide]",7
11,"C#C[C@](C)(c1ccc(Cl)cc1)c1csc(NC(=O)c2c(F)cc(N3CCN(C)CC3)cc2F)n1 [Example C010, (R)-N-(4-(2-(4-chlorophenyl)but-3-yn-2-yl)thiazol-2-yl)-2,6-difluoro-4-(4-methylpiperazin-1-yl)benzamide]",56
12,"CCOCC(C)(c1ccccc1)c1csc(NC(=O)c2c(F)cc(N3CCNCC3)cc2F)n1 (stereo not drawn) [Example C012, N-(4-(1-ethoxy-2-phenylpropan-2-yl)thiazol-2-yl)-2,6-difluoro-4-(piperazin-1-yl)benzamide]",78
13,"COCC(C)(c1ccc(Br)cc1)c1csc(NC(=O)c2c(F)cc(N3CCNCC3)cc2F)n1 (stereo not drawn) [Example C014, N-(4-(2-(4-bromophenyl)-1-methoxypropan-2-yl)thiazol-2-yl)-2,6-difluoro-4-(piperazin-1-yl)benzamide]",13
14,"CN1CCN(c2cc(F)c(C(=O)Nc3nc(C4(c5ccc(Br)cc5)CCCC4)cs3)c(F)c2)CC1 [Example C015, N-(4-(1-(4-bromophenyl)cyclopentyl)thiazol-2-yl)-2,6-difluoro-4-(4-methylpiperazin-1-yl)benzamide]",266
15,"COC[C@](C)(c1ccccc1)c1csc(NC(=O)c2c(F)cc(N3CCNCC3)cc2F)n1 [Example C017, (R)-2,6-difluoro-N-(4-(1-methoxy-2-phenylpropan-2-yl)thiazol-2-yl)-4-(piperazin-1-yl)benzamide]",67
16,"C#C[C@@](C)(c1ccc(Cl)cc1)c1nc(NC(=O)c2c(F)cc(N3CCNCC3)cc2F)sc1Cl [Example C020, (S)-N-(5-chloro-4-(2-(4-chlorophenyl)but-3-yn-2-yl)thiazol-2-yl)-2,6-difluoro-4-(piperazin-1-yl)benzamide]",88
17,"COCC(C)(c1ccc(OC)cc1)c1csc(NC(=O)c2c(F)cc(N3CCNCC3)cc2F)n1 (stereo not drawn) [Example C021, 2,6-difluoro-N-(4-(1-methoxy-2-(4-methoxyphenyl)propan-2-yl)thiazol-2-yl)-4-(piperazin-1-yl)benzamide]",44
18,"C#C[C@](C)(c1ccc(Cl)cc1)c1csc(NC(=O)c2c(F)cc(N3CCN(CCO)CC3)cc2F)n1 [Example C022, (R)-N-(4-(2-(4-chlorophenyl)but-3-yn-2-yl)thiazol-2-yl)-2,6-difluoro-4-(4-(2-hydroxyethyl)piperazin-1-yl)benzamide]",188

row,Structure (SMILES),IC50 [nM]
1,"C#C[C@@](C)(c1ccc(Cl)cc1)c1csc(NC(=O)c2c(F)cc(N3CCN(CCO)CC3)cc2F)n1 [Example C023, (S)-N-(4-(2-(4-chlorophenyl)but-3-yn-2-yl)thiazol-2-yl)-2,6-difluoro-4-(4-(2-hydroxyethyl)piperazin-1-yl)benzamide]",60
2,"COC[C@](C)(c1ccc(Cl)cc1)c1csc(NC(=O)c2c(F)cc(N3CCNCC3)cc2F)n1 [Example C024, (R)-N-(4-(2-(4-chlorophenyl)-1-methoxypropan-2-yl)thiazol-2-yl)-2,6-difluoro-4-(piperazin-1-yl)benzamide]",130
3,"COC[C@@](C)(c1ccc(Cl)cc1)c1csc(NC(=O)c2c(F)cc(N3CCNCC3)cc2F)n1 [Example C025, (S)-N-(4-(2-(4-chlorophenyl)-1-methoxypropan-2-yl)thiazol-2-yl)-2,6-difluoro-4-(piperazin-1-yl)benzamide]",8
4,"O=C(Nc1nc(C2(c3ccc(Br)cc3)CCCC2)cs1)c1c(F)cc(N2CCNCC2)cc1F [Example C026, N-(4-(1-(4-bromophenyl)cyclopentyl)thiazol-2-yl)-2,6-difluoro-4-(piperazin-1-yl)benzamide]",437
5,"COCC(C)(c1ccc(Br)cc1)c1csc(NC(=O)c2c(F)cc(N3CCNCC3)cc2F)n1 (stereo not drawn) [Example C027, N-(4-(2-(4-bromophenyl)-1-methoxypropan-2-yl)thiazol-2-yl)-2,6-difluoro-4-(piperazin-1-yl)benzamide]",100
6,"COCC(C)(c1ccc(OC)cc1)c1csc(NC(=O)c2c(F)cc(N3CCNCC3)cc2F)n1 (stereo not drawn) [Example C028, 2,6-difluoro-N-(4-(1-methoxy-2-(4-methoxyphenyl)propan-2-yl)thiazol-2-yl)-4-(piperazin-1-yl)benzamide]",288
7,"COCC(C)(c1ccc(Cl)cc1)c1csc(NC(=O)c2c(F)cc(N3CCNCC3)cc2F)n1 (stereo not drawn) [Example C029, N-(4-(2-(4-chlorophenyl)-1-methoxypropan-2-yl)thiazol-2-yl)-2,6-difluoro-4-(piperazin-1-yl)benzamide]",128
8,"CN1CCN(c2cc(F)c(C(=O)Nc3nc(C4(c5ccc(Br)cc5)CCCC4)cs3)c(F)c2)CC1 [Example C030, N-(4-(1-(4-bromophenyl)cyclopentyl)thiazol-2-yl)-2,6-difluoro-4-(4-methylpiperazin-1-yl)benzamide]",1770
9,"CCOCC(C)(c1ccccc1)c1csc(NC(=O)c2c(F)cc(N3CCNCC3)cc2F)n1 (stereo not drawn) [Example C031, N-(4-(1-ethoxy-2-phenylpropan-2-yl)thiazol-2-yl)-2,6-difluoro-4-(piperazin-1-yl)benzamide]",642
10,"C#CC(C)(c1ccc(OC(F)F)cc1)c1csc(NC(=O)c2c(F)cc(N3CCNCC3)cc2F)n1 (stereo not drawn) [Example C033, N-(4-(2-(4-(difluoromethoxy)phenyl)but-3-yn-2-yl)thiazol-2-yl)-2,6-difluoro-4-(piperazin-1-yl)benzamide]",73
11,"CC(c1ccc(Cl)cc1)(c1csc(NC(=O)c2c(F)cc(N3CCNCC3)cc2F)n1)C1CC1 (stereo not drawn) [Example C045, N-(4-(1-(4-chlorophenyl)-1-cyclopropylethyl)thiazol-2-yl)-2,6-difluoro-4-(piperazin-1-yl)benzamide]",25
12,"C#CC(CC)(c1ccc(Cl)cc1)c1csc(NC(=O)c2c(F)cc(N3CCNCC3)cc2F)n1 (stereo not drawn) [Example C047, N-(4-(3-(4-chlorophenyl)pent-1-yn-3-yl)thiazol-2-yl)-2,6-difluoro-4-(piperazin-1-yl)benzamide]",131
13,"C#CC(C)(c1ccc(Cl)cc1)c1coc(NC(=O)c2c(F)cc(N3CCNCC3)cc2F)n1 (stereo not drawn) [Example C051, N-(4-(2-(4-chlorophenyl)but-3-yn-2-yl)oxazol-2-yl)-2,6-difluoro-4-(piperazin-1-yl)benzamide]",26
14,"C#CC(C)(c1ccc(Cl)cc1)c1c[nH]c(NC(=O)c2c(F)cc(N3CCNCC3)cc2F)n1 (stereo not drawn) [Example C052, N-(4-(2-(4-chlorophenyl)but-3-yn-2-yl)-1H-imidazol-2-yl)-2,6-difluoro-4-(piperazin-1-yl)benzamide]",44
15,"CC(=O)Nc1nc(C(C)(C)c2ccc(Br)cc2)cs1 [Example D001, N-(4-(2-(4-bromophenyl)propan-2-yl)thiazol-2-yl)acetamide]",100
16,"C#CC(C)(c1ccc(OC)cc1)c1csc(NC(C)=O)n1 (stereo not drawn) [Example D002, N-(4-(2-(4-methoxyphenyl)but-3-yn-2-yl)thiazol-2-yl)acetamide]",196
17,"C#CC(C)(c1csc(NC(C)=O)n1)c1ccc(Br)cc1F (stereo not drawn) [Example D003, N-(4-(2-(4-bromo-2-fluorophenyl)but-3-yn-2-yl)thiazol-2-yl)acetamide]",183
18,"C#CC(C)(c1ccc(Cl)cc1)c1csc(NC(C)=O)n1 (stereo not drawn) [Example D004, N-(4-(2-(4-chlorophenyl)but-3-yn-2-yl)thiazol-2-yl)acetamide]",18
